ChEMBL document CHEMBL1148659, “Discovery of potent and orally active MTP inhibitors as potential anti-obesity agents” (Bioorg Med Chem Lett, 2006)

Biological target: T1, Microsomal triglyceride transfer protein large subunit (Homo sapiens) (UniProt P55157)
T1 sequence (whole entry): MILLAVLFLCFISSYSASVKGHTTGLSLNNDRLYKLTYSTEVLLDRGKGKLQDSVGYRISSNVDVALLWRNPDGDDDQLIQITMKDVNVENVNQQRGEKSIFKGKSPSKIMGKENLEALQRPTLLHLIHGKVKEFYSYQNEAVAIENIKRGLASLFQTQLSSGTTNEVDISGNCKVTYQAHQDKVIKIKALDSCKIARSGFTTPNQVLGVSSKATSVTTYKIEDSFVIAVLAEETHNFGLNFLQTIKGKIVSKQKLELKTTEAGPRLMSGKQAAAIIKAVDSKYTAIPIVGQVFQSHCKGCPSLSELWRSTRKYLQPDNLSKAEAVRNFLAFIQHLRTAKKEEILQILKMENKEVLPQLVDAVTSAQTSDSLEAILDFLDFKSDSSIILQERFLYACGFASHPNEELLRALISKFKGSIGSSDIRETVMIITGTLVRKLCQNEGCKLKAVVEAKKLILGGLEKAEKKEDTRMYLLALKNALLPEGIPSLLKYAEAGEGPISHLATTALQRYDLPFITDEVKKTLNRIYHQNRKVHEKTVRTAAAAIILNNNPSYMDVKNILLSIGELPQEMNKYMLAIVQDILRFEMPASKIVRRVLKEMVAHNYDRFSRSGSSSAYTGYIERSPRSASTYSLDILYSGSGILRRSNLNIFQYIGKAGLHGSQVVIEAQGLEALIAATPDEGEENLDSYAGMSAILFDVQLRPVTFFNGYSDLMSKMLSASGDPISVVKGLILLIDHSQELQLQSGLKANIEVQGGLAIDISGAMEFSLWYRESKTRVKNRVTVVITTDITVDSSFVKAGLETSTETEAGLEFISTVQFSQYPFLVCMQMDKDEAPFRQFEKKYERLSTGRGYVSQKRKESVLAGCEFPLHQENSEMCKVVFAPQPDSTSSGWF
Assay: Inhibition of intestinal MTP in rat by murine gut retention assay
Assay type: functional
Conditions: target entry is the homologue from another species

| Compound | ED25 [mg/kg] |
| --- | --- |
| O=C(N[C@H](C(=O)N1CCCC1)c1ccccc1)c1ccc(NC(=O)c2ccccc2-c2ccc(C(F)(F)F)cc2)nc1 | 6.93 |
| Cc1cc(C(=O)N[C@H](C(=O)N2CCCC2)c2ccccc2)ccc1NC(=O)c1ccccc1-c1ccc(C(F)(F)F)cc1 | 3 |
